# Results from patent publication US6492137B1, “Response element compositions and assays employing same” (The Salk Institute for Biological Studies, priority 1989, dated 2002).
# Experiments:
# TRβ [1] = biological target: T1, TRβ (Homo sapiens, UniProt P10828); test: ΔSV-CAT reporter cotransfection assay in CV-1 cells with TRβ expression plasmid, ±T3; type: cell-based; parameters: expressed in transfected cells; host or cells: CV-1 (monkey kidney); details: TRβ expression vector
# T1 sequence (P10828 1-461): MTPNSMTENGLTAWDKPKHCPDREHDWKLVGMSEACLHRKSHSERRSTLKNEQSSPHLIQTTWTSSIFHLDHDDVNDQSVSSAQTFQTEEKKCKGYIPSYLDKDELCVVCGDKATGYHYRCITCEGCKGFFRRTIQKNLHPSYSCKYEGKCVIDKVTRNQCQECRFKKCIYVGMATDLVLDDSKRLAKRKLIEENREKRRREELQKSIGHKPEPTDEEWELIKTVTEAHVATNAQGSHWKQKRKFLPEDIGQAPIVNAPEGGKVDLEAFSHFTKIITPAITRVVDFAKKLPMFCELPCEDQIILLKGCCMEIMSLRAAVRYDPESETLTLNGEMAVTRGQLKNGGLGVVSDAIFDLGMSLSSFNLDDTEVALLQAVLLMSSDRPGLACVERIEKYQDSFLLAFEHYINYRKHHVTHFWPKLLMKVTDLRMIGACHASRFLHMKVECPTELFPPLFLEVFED
# Description: Receptor expression plasmids used in the following cotransfection assays have been described previously (pRShTRβ [see Thompson, et al., Proc. Natl. Acad. Sci. U.S.A. 86: 3494-3498 (1989)]; pRShRARα [see Giguere, et al., Nature 330: 624-629 (1987)]; pRShRARβ and pRshRARγ [see Ishikawa, et al., Mol. Endocrinol, 4: 837-844 (1990)]; and pRShVDR, [Schule, et al., Cell 61: 497-504 (1990)]. A basal reporter plasmid ΔSV-CAT was constructed by replacing the TK promoter in TK-CAT [Damm, et al., Nature 339: 593-597 (1989)] with the SphI-HindIII fragment of the SV40 early promoter. All of the recombinant CAT reporter plasmids used herein harbor a single copy of the indicated oligonucleotides at the unique HindIII site upstream of the SV40 promoter. […] To improve production of receptor proteins in COS cells, a new eukaryotic expression vector pCMX was prepared by modifying the plasmid CDM8 [Seed, B., Nature 329: 840-842 (1987)]. The CDM8 was cut with MluI and StuI in order to release the DNA fragment encoding the CMV/T7 promoter, SV40 small t intron/poly A signal, polyoma virus enhancer/origin, and SV40 enhancer/origin. The resulting fragment was ligated to a larger fragment of PvuII-digested PUC19. An internal deletion was introduced between unique BamHI and BclI sites present in the DCM8 portion. The stuffer sequence flanked by XbaI sites was replaced with a synthetic polylinker coding for 5′-KpnI/Asp718-EcoRV-BamHI -MscI-NheI-3′, followed by a stretch of 5′-[…]-3′ (SEQ ID NO:48) which can function as a universal termination signal for protein translation. The coding sequence of the luciferase [de Wet, et al., Mol. Cell. Biol. 7: 725-737 (1987)] and human TRβ, RARα, and VDR was placed in the polylinker region of the pCMX, generating pCMX-LUC, Pcmx-Htrβ, pCMX-hRARα, and pCMX-hVDR, respectively. The translation start site of the RARα was modified to […] by attaching the synthetic linker encoding a consensus translation start signal [Hollenberg, et al., Cell 55: 899-906 (1988)].
# (§1) For cotransfection assays, a monkey kidney cell line CV-1 was kept in Dulbecco's modified Eagle's medium (DMEM) supplemented with 10% charcoal-resin double split calf bovine serum. Transfections were performed via calcium-phosphate precipitation method as described by Umesono, et al. in Cell 57: 1139-1146 (1989), with 0.5 μg of a pRS receptor expression plasmid, 1.0 μg of a reporter CAT plasmid, 5 μg of pRAS-βGAL [Umesono, et al., Cell 57: 1139-1146 (1989)] as an internal control, and 8.5 μg of carrier plasmid pUC19. The cells were transfected for 8 hours; after washing the DNA precipitates, the cells were then incubated for an additional 36 hours with or without the ligand (T3, 100 nM; RA, 1 μM; 1,25-(OH)2 vitamin D3, 100 nM). Cell extracts were prepared for βGAL and CAT assays, as described by Umesono, et al., supra. Transfection of F9 teratocarcinoma cells was carried out employing a similar method except the cells were incubated for 12 hours in the presence of the DNA precipitates, and the RA was added at 1 μM for another 24 hours before harvesting the cells. 2, 5, and 4 μg of the reporter, pRAS-βGAL, and pUC19 were used, respectively.
# Target hormone response elements described in FIG. 3 were synthesized as double-stranded oligonucleotides with an overhanging tetranucleotide (5′-agct-3′) at both ends. A single copy of these oligonucleotides was cloned at the unique HindIII site present in the basal promoter CAT construct ΔSV-CAT. Capitalized portions in the nucleotide sequences correspond to those found in the natural promoters except TREp and rGH21, which are synthetic. Bold letters indicate the “AGGTCA” motif and “X” denotes a nucleotide substitution from this motif.
# TRβ [2] = biological target: T1, TRβ; test: Gel retardation DNA-binding assay with TRβ-expressing COS cell extracts; parameters: expressed in transfected cells; host or cells: COS cells (whole-cell extract); details: for competition for TRβ binding to 32P-labeled MHC-N: 50-fold excess of unlabeled oligonucleotide, COS cell extracts; for TRβ binding to labeled oligonucleotide probe: gel retardation, TRβ COS cell extract
# Protocol: For DNA binding assays, COS cells were cultured in DMEM with 10% calf bovine serum and transfected by the calcium phosphate method with 20 μg of the pCMX receptor expression plasmid for 6 hours followed by a glycerol shock. After incubating the transfected COS cells for another 48 hours, the cells were harvested to prepare extracts for the DNA binding assay, carried out as described by Damm et al., Nature 339: 593-597 (1989). The extracts were made in 20 mM HEPES (pH 7.4), 0.4 M KCl, 2 mM DTT and 20% glycerol. A similar method was employed to prepare a whole cell extract from F9 stem cells. For the binding, 5 μg (COS) or 10 μg (F9) of proteins was incubated on ice for 20 minutes, first in 20 mM HEPES, 80 mM KCl, 1 mM DTT, 0.1% NP40, 2.5 μg of poly dI/dC, and 10% glycerol (cold competitor oligonucleotides, when included, were added during this pre-incubation period). Then 40 fmole of ^32P-labeled oligonucleotide probe (1-2×10^5 cpm, prepared by filling-in reaction using Klenow polymerase in the presence of α-^32P-dCTP) was added to the reaction mixture, followed by incubation at room temperature for 30 minutes. The receptor-DNA complexes were resolved by electrophoresis through 5% polyacrylamide gel containing 5% glycerol at 6 V/cm at room temperature.
# Oligonucleotides listed in FIG. 3 were used as a probe to test specific DNA-binding of the RARα and TRβ in a gel retardation assay.
# Using the mobility shift assay, the DNA-binding capacity of extracts from COS cells expressing TRβ and RARα to these sequences was also tested.
# [3] = test system: F9 teratocarcinoma stem cells; test: CAT reporter transfection into RA responsive F9 teratocarcinoma stem cells; type: cell-based, mouse; details: RA 1 μM, 24 hours; no transfected receptor
# Protocol: as §1
# Similarly, when the same set of reporters as in FIG. 4 were transfected into F9 cells, only MHC-R (5-nucleotide spacer) and TREp are potent RAREs. In contrast, its RARE antecedents (MHC-N, MHC+1, MHC-T) are inert.
substance,measurement,setting,value
"M1: MHC-N with nucleotide substitutions in the proposed direct repeat motif (SEQ ID NO:15) (AGCTGGAAATGACAGGAGGACAGCAAGCT; DNA, backbone not given here; double-stranded DNA response element with agct overhangs, cloned into reporter)",T3 responsiveness (in words),TRβ [1],completely silent to T3
same,competition for TRβ binding to 32P-labeled MHC-N,TRβ [2],did not
"M2: MHC-N mutant with nucleotide substitutions in the presumed palindrome (SEQ ID NO:16) (AGCTGGAGGTGACGAAAGGACAGCAAGCT; DNA, backbone not given here; double-stranded DNA response element with agct overhangs, cloned into reporter)",T3 responsiveness (in words),TRβ [1],retains a T3 response though impaired
same,competition for TRβ binding to 32P-labeled MHC-N,TRβ [2],competed
"M3: MHC-N with nucleotide substitutions in the proposed direct repeat motif (SEQ ID NO:17) (AGCTGGAGGTGACAGGAAAACAGCAAGCT; DNA, backbone not given here; double-stranded DNA response element with agct overhangs, cloned into reporter)",T3 responsiveness (in words),TRβ [1],completely silent to T3
same,competition for TRβ binding to 32P-labeled MHC-N,TRβ [2],did not
"MHC+1: MHC-N with half-site spacing increased by one nucleotide (SEQ ID NO:22) (AGCTGGAGGTGAACAGGAGGACAGCAAGCT; DNA, backbone not given here; double-stranded response element with agct overhangs, cloned into reporter plasmid)",competition for TRβ binding (mobility shift assay),"TRβ [2]; unlabeled competitor oligonucleotide, COS cells expressing TRβ",poor competitors
same,function as RARE in F9 cells,[3],inert
"MHC-D: segment of the MHC sequence including an adjacent sequence; deletion from MHC-L (SEQ ID NO:13) (AGCTTGAGGTGACAGGAGGACAGCAGCT; DNA, backbone not given here; double-stranded DNA response element with agct overhangs, cloned into reporter)",T3 responsiveness (in words),TRβ [1],recovery of the full response
"MHC-L: wild-type MHC sequence encoding a TRE in the MHC gene promoter (SEQ ID NO:11) (AGCTCCTTGGCTCTGGAGGTGACAGGAGGACAGCAGCT; DNA, backbone not given here; double-stranded response element with agct overhangs, cloned into reporter plasmid)",T3 responsiveness (in words),TRβ [1],responsive to T3
"MHC-S: restricted region of MHC-L corresponding to the predicted palindrome (SEQ ID NO:12) (AGCTCTCTGGAGGTGACAGGAAGCT; listed as DNA, further chemistry not given here)",T3 responsiveness (in words),TRβ [1],failed to confer T3 responsiveness
"MLV-LTR: thyroid response element found in the murine Maloney Leukemia Virus LTR (SEQ ID NO:19) (DNA AGCTCAGGGTCATTTCAGGTCCTTGAAGCT; listed as DNA, chemistry not given here) [reference compound]",T3 responsiveness (in words),TRβ [1],confers T3 inducibility
same,TRβ binding to labeled oligonucleotide probe,TRβ [2],high affinity
"rGH21: rat growth hormone gene sequence proposed as a candidate TRE (SEQ ID NO:20) (AGCTAGGTAAGATCAGGTAAGTAGCT; listed as DNA, chemistry not fully specified) [reference compound]",T3 responsiveness (in words),TRβ [1],fails to confer T3-dependent transactivation
same,TRβ binding to labeled oligonucleotide probe,TRβ [2],binds very poorly
